Reference: PMC11413853, “Discovery of VU6007496: Challenges in the Development of an M1 Positive Allosteric Modulator Backup Candidate” (ACS Chemical Neuroscience, 2024)

Columns and labels:
hM2-5 = test: Muscarinic selectivity, human M2-5; assay type: cell-based
Experimental: Procedures for Biological Experiments
Calcium mobilization assays:
All functional cell-based assays were performed in stable Chinese Hamster Ovary (CHO) cell lines constitutively expressing human M5 or human M1 receptors. For full muscarinic selectivity, CHO cells expressing human M3, human M2 plus Gqi5 or human M4 plus Gqi5 were used. Cells were plated at 15,000 cells per 20 µL per well in black 384-well, TC-treated, clear-bottomed plates (Greiner) in Ham’s F12 medium supplemented with 10% FBS and 20 mM HEPES. Cells were incubated overnight at 37 °C under 5% CO2. The following day, the medium was removed and replaced with 1.2 µM Fluo-4 AM (Invitrogen) in assay buffer (Hank’s Balanced Salt Solution supplemented with 20 mM HEPES and 2.5 mM Probenecid, pH 7.4) and the cells were incubated for 50 minutes at 37 °C under 5% CO2. Dye was then removed and replaced with 20 µL of fresh assay buffer. Test compounds at a 10 mM concentration in DMSO were serially diluted in DMSO (either 1:3 or 1:5 dilution) to create a 10-point concentration series. The DMSO solutions were then diluted in assay buffer resulting in compound solutions at 2-times the final assay concentration with the highest assay concentration of 30 µM. The compound plate, cell plate, and plates containing EC20 and EC80 acetylcholine concentrations were placed in a Hamamatsu FDSS 6000 or 7000 kinetic imaging plate reader equipped to measure Ex480/Em540 fluorescence. Data were collected at 1 frame per second. After 2 seconds of collecting baseline fluorescence, 20 µL of the compound solutions were added to the cell plate. This was followed by the addition of an EC20 concentration of acetylcholine at 142 seconds. […] The fluorescence signal was collected for a total of 300 seconds. […] Data were imported and analyzed in Dotmatics Informatics software. by normalizing all data in the individual kinetic traces to the initial fluorescence read. The magnitude of each agonist addition was then determined and normalized to the average maximum response. […] The IC50 determined using the EC80 of acetylcholine is the value reported. […]

[1] = Plasma protein binding, human; assay type: in vitro ADME; conditions: pH 7.4, read-out: fu,plasma human
Experimental: (§1) Plasma protein binding and Brain homogenate binding: Determination of fraction unbound (f u) in plasma was conducted in vitro via equilibrium dialysis using HTDialysis (HTD) membrane plates. The top half of the plate was filled with 100 uL of Dubelco’s Phosphate Buffered Saline, pH 7.4 (DPBS). Compounds were diluted into plasma from each species (5 µM final concentration), which was aliquoted in triplicate to the ‘bottom half’ of the prepared HTD plate wells. The HTD plate was sealed and incubated for 6 hours at 37 °C. Following incubation, each well (both top and bottom halves) were transferred (20 µL) to the corresponding wells of a 96-shallow-well (V-bottom) plate. The daughter plates were then matrix-matched (DPBS side wells received equal volume of plasma, and plasma side wells received equal volume of DPBS), and extraction solution (120 µL; acetonitrile containing 50 nM carbamazepine as IS) was added to all wells of both daughter plates to precipitate protein and extract test article. The plates were then sealed and centrifuged (3500 rcf) for 10 minutes at ambient temperature. Supernatant (60 µL) from each well of the daughter plates was then transferred to the corresponding wells of new daughter plates (96-shallow-well, V bottom) containing water (Milli-Q, 60 µL/well), and the plates were sealed in preparation for LC-MS/MS analysis (see LC-MS/MS analysis method below).
(§2) The unbound fraction (f u) was calculated following the equation below, and mean values for each species were calculated from 3 replicates. […]
(§3) Fraction unbound for both plasma and brain samples was determined using Equation 4.
(§4) Equation 4 Determination of fraction unbound in plasma.

[2] = Plasma protein binding, rat; assay type: in vitro ADME; conditions: pH 7.4, read-out: fu,plasma rat
Experimental: as §1, §2, §3, §4

CYP1A2 = molecular target: T1, CYP1A2 (Homo sapiens, UniProt P05177); test: CYP inhibition, 1A2; assay type: in vitro ADME
T1 sequence (P05177 1-516): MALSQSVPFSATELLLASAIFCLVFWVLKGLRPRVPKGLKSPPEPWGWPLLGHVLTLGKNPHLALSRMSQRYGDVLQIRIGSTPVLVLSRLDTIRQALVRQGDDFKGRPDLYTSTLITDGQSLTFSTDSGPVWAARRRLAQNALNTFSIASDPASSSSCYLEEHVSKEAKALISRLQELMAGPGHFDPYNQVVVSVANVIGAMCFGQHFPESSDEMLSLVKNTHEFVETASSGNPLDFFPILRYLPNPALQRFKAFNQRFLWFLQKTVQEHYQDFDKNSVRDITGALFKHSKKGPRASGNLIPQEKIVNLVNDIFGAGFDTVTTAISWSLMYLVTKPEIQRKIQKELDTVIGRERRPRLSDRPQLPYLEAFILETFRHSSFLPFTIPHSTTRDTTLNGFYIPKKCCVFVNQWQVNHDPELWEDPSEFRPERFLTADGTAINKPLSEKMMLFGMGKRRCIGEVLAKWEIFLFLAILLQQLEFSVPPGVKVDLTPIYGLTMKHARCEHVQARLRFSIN

CYP2C9 = CYP2C9 (Homo sapiens, UniProt P11712); test: CYP inhibition, 2C9; assay type: in vitro ADME
Chain of CYP2C9 (P11712 whole entry): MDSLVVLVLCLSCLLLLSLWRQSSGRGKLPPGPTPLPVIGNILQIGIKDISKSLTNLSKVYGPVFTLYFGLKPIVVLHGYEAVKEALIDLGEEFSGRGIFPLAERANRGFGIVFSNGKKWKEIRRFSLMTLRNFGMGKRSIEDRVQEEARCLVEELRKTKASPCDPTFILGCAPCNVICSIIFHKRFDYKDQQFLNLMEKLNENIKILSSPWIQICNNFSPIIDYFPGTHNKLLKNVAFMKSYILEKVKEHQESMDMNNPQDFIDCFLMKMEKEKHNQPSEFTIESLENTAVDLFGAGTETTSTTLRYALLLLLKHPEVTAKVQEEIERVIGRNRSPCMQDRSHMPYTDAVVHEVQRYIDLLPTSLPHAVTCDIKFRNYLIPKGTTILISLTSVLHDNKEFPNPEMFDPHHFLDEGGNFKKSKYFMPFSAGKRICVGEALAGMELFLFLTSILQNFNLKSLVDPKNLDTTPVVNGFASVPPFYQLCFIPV

[3] = GSH trapping study in human liver microsomes; assay type: in vitro ADME
cardiac ion channels = test: Electrophysiology panel of cardiac ion channels (summary); assay type: cell-based; conditions: 10 μM; whole panel
Source text: In a 4-strain Ames assay, with and without S9, both 11 and 12 were negative.
Table S2. Effects of VU6007496 on Ion Channel Current (Charles River Study 200609.WVN)
Ion Channel Conc Mean % Standard Standard n Individual Data
(μM) Inhibition Deviation Error Points (% Inhibition)

Melatonin MT1 = test: Eurofins radioligand binding; set-up: species or system Human; conditions: specific binding

SMILES | EC50 (hM2-5) [µM] | fraction unbound at 6 h, 5 µM [1] | fraction unbound at 6 h, 5 µM [2] | IC50 (CYP1A2) [µM] | IC50 (CYP2C9) [µM] | GSH trapping, reactive intermediates [3] | inhibition of cardiac ion channels (cardiac ion channels) [%] | % Inhibition at 10 µM (Melatonin MT1) [%] | activity on human M2–5 (hM2-5)
Cn1ccc(-c2ccc(Cc3cc(C(=O)NC4CCOCC4)nc4ccn(C)c34)cc2)n1 [compound 11] | > 30 | 0.016 | 0.04 | > 30 | 28.5 | negative | < 17 | 7 | 
Cn1ccc(-c2ccc(Cc3cc(C(=O)NC4CCOCC4)nc4ccsc34)cc2)n1 [compound 12] | > 30 | 0.005 | 0.015 | > 30 | 16.6 | negative | < 17 | 70 | 
Cn1ccc2nc(C(=O)NC3CCOCC3)cc(Cc3ccc(-c4cc[nH]n4)cc3)c21 [compound 24] |  | 0.047 | 0.134 | > 30 | > 30 |  |  |  | inactive
